# Read-outs that look alike come from different tables or passages of the source.
# Columns and labels:
# intracellular MRSA = type: cell-based, Staphylococcus aureus; settings: for z-scoreMRSA+ mean: mean of 3 replicates; for z-scoreMRSA+ rep 1 / %GFP+ rep 1: replicate 1; for z-scoreMRSA+ rep 2 / %GFP+ rep 2: replicate 2; for z-scoreMRSA+ rep 3 / %GFP+ rep 3: replicate 3
# Outline: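 HeLa cells were infected with GFP-expressing MRSA (mean MOI 6.8) for 1 h, treated with 30 µg/ml gentamicin for 15 min, then incubated overnight at 37°C with kinase inhibitors and 5 µg/ml gentamicin. Flow cytometry gave % GFP-positive cells, with cell count as viability. Hits were z-score ≤ -2 (infection) and ≥ -3 (count) versus DMSO.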
# HeLa cells = experiment: Compound screen by flow cytometry: HeLa cell count as surrogate readout of cell viability (z-scoreHeLa); type: cell-based, human; settings: for z-scoreHeLa mean: mean of 3 replicates; for z-scoreHeLa rep 1 / cell count rep 1: replicate 1; for z-scoreHeLa rep 2 / cell count rep 2: replicate 2; for z-scoreHeLa rep 3 / cell count rep 3: replicate 3
# Outline: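 The viability surrogate was the count of fixed HeLa cells by flow cytometry, converted to z-scores against DMSO controls with values deviating two-fold excluded. Before counting, cells had been infected with MRSA for 1 h and cleared of extracellular bacteria with gentamicin. They were then exposed overnight to kinase inhibitors in triplicate.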
# [1] = PKIS compound screen, Yes/No call
# [2] = PKIS compound screen, Yes/No call (effect without cell death)
# [3] = PKIS compounds raw data, MRSA-infected HeLa cells
# [4] = PKIS compounds raw data, HeLa cell count
# [5] = PKIS compound screen raw data, MRSA-infected HeLa cells
# [6] = Yes/No: effect without cell death
# [7] = compound screen, MRSA-infected HeLa cells
# [8] = PKIS compound screen raw data, HeLa cell count
# [9] = compound screen, HeLa cell count
# [10] = PKIS compound screen, MRSA-infected HeLa cells
# [11] = PKIS compound screen, HeLa cell count
compound,measurement,setting,value
Cn1cc(-c2ccc3c(c2)CCN3C(=O)Cc2ccccc2Cl)c2c(N)ncnc21 [GSK2608885A],effect,intracellular MRSA; [1],No
same,hit,intracellular MRSA; [2],No
same,z-scoreMRSA+ mean,intracellular MRSA; PKIS compound screen,0.34
same,z-scoreMRSA+ rep 1,intracellular MRSA; PKIS compound screen,0.11
same,z-scoreMRSA+ rep 2,intracellular MRSA; PKIS compound screen,0.57
same,z-scoreMRSA+ rep 3,intracellular MRSA; PKIS compound screen,0.34
same,%GFP+ rep 1,intracellular MRSA; [3],27.6%
same,%GFP+ rep 2,intracellular MRSA; [3],29.0%
same,%GFP+ rep 3,intracellular MRSA; [3],29.1%
same,cell death,HeLa cells; [1],No
same,z-scoreHeLa mean,HeLa cells; PKIS compound screen,-0.08
same,z-scoreHeLa rep 1,HeLa cells; PKIS compound screen,-0.13
same,z-scoreHeLa rep 2,HeLa cells; PKIS compound screen,0.00891
same,z-scoreHeLa rep 3,HeLa cells; PKIS compound screen,-0.13
same,cell count rep 1,HeLa cells; [4],5830
same,cell count rep 2,HeLa cells; [4],6021
same,cell count rep 3,HeLa cells; [4],5398
Fc1cc(Cl)ccc1Nc1ccnc2cc(-c3ccc(CN4CCCCC4)o3)ccc12 [GW560116X],%GFP+ rep 1,intracellular MRSA; [5],26.5%
same,%GFP+ rep 2,intracellular MRSA; [5],26.3%
same,%GFP+ rep 3,intracellular MRSA; [5],25.6%
same,effect,intracellular MRSA; Yes/No call from z-scoreMRSA+,No
same,hit,intracellular MRSA; [6],No
same,z-scoreMRSA+ mean,intracellular MRSA; [7],0.73
same,z-scoreMRSA+ rep 1,intracellular MRSA; [7],0.29
same,z-scoreMRSA+ rep 2,intracellular MRSA; [7],0.89
same,z-scoreMRSA+ rep 3,intracellular MRSA; [7],1.02
same,cell count rep 1,HeLa cells; [8],2203
same,cell count rep 2,HeLa cells; [8],2204
same,cell count rep 3,HeLa cells; [8],1264
same,cell death,HeLa cells; Yes/No call from z-scoreHeLa,No
same,z-scoreHeLa mean,HeLa cells; [9],-1.89
same,z-scoreHeLa rep 1,HeLa cells; [9],-1.55
same,z-scoreHeLa rep 2,HeLa cells; [9],-1.61
same,z-scoreHeLa rep 3,HeLa cells; [9],-2.51
COc1ccc(-c2oc3ncnc(N)c3c2-c2ccc(NC(=O)Nc3cc(C(F)(F)F)ccc3F)cc2)cc1 [GW768505A],%GFP+ rep 1,intracellular MRSA; [3],11.3%
same,%GFP+ rep 2,intracellular MRSA; [3],13.4%
same,%GFP+ rep 3,intracellular MRSA; [3],12.4%
same,effect,intracellular MRSA; Yes/No call from z-scoreMRSA+,No
same,hit,intracellular MRSA; [6],No
same,z-scoreMRSA+ mean,intracellular MRSA; [7],-0.55
same,z-scoreMRSA+ rep 1,intracellular MRSA; [7],-0.60
same,z-scoreMRSA+ rep 2,intracellular MRSA; [7],-0.0319
same,z-scoreMRSA+ rep 3,intracellular MRSA; [7],-1.03
same,cell count rep 1,HeLa cells; [4],2576
same,cell count rep 2,HeLa cells; [4],4064
same,cell count rep 3,HeLa cells; [4],5860
same,cell death,HeLa cells; Yes/No call from z-scoreHeLa,No
same,z-scoreHeLa mean,HeLa cells; [9],-0.89
same,z-scoreHeLa rep 1,HeLa cells; [9],-1.99
same,z-scoreHeLa rep 2,HeLa cells; [9],-0.15
same,z-scoreHeLa rep 3,HeLa cells; [9],-0.53
Cc1cccc2c1NC(=O)C2=NNc1ccc(S(N)(=O)=O)cc1 [GW282536X],%GFP+ rep 1,intracellular MRSA; [5],21.7%
same,%GFP+ rep 2,intracellular MRSA; [5],20.9%
same,%GFP+ rep 3,intracellular MRSA; [5],20.2%
same,effect,intracellular MRSA; Yes/No call from z-scoreMRSA+,No
same,hit,intracellular MRSA; [6],No
same,z-scoreMRSA+ mean,intracellular MRSA; [7],-0.62
same,z-scoreMRSA+ rep 1,intracellular MRSA; [7],-0.83
same,z-scoreMRSA+ rep 2,intracellular MRSA; [7],-0.42
same,z-scoreMRSA+ rep 3,intracellular MRSA; [7],-0.60
same,cell count rep 1,HeLa cells; [8],1823
same,cell count rep 2,HeLa cells; [8],2013
same,cell count rep 3,HeLa cells; [8],1046
same,cell death,HeLa cells; Yes/No call from z-scoreHeLa,No
same,z-scoreHeLa mean,HeLa cells; [9],-2.08
same,z-scoreHeLa rep 1,HeLa cells; [9],-1.82
same,z-scoreHeLa rep 2,HeLa cells; [9],-1.76
same,z-scoreHeLa rep 3,HeLa cells; [9],-2.65
c1ccc(-c2cc3ccncc3cc2OC2CCNCC2)cc1 [GSK1122999D],%GFP+ rep 1,intracellular MRSA; [5],16.9%
same,%GFP+ rep 2,intracellular MRSA; [5],18.4%
same,%GFP+ rep 3,intracellular MRSA; [5],20.9%
same,z-scoreMRSA+ mean,intracellular MRSA; [10],-0.29
same,z-scoreMRSA+ rep 1,intracellular MRSA; [10],-0.50
same,z-scoreMRSA+ rep 2,intracellular MRSA; [10],-0.28
same,z-scoreMRSA+ rep 3,intracellular MRSA; [10],-0.09
same,effect,intracellular MRSA; [1],No
same,hit,intracellular MRSA; [2],No
same,effect,"intracellular MRSA; PKIS compound screen, Yes/No call on z-scoreMRSA+",No
same,z-scoreMRSA+ mean,intracellular MRSA; PKIS compound screen,0.55
same,z-scoreMRSA+ rep 1,intracellular MRSA; PKIS compound screen,0.42
same,z-scoreMRSA+ rep 2,intracellular MRSA; PKIS compound screen,0.40
same,z-scoreMRSA+ rep 3,intracellular MRSA; PKIS compound screen,0.84
same,%GFP+ rep 1,intracellular MRSA; [3],29.2%
same,%GFP+ rep 2,intracellular MRSA; [3],28.1%
same,%GFP+ rep 3,intracellular MRSA; [3],31.8%
same,cell count rep 1,HeLa cells; [8],28278
same,cell count rep 2,HeLa cells; [8],18056
same,cell count rep 3,HeLa cells; [8],22119
same,z-scoreHeLa mean,HeLa cells; [11],-0.31
same,z-scoreHeLa rep 1,HeLa cells; [11],-0.33
same,z-scoreHeLa rep 2,HeLa cells; [11],-1.24
same,z-scoreHeLa rep 3,HeLa cells; [11],0.62
same,cell death,HeLa cells; [1],No
same,cell death,"HeLa cells; PKIS compound screen, Yes/No call on z-scoreHeLa",No
same,z-scoreHeLa mean,HeLa cells; PKIS compound screen,0.77
same,z-scoreHeLa rep 1,HeLa cells; PKIS compound screen,1.62
same,z-scoreHeLa rep 2,HeLa cells; PKIS compound screen,0.23
same,z-scoreHeLa rep 3,HeLa cells; PKIS compound screen,0.45
same,cell count rep 1,HeLa cells; [4],8742
same,cell count rep 2,HeLa cells; [4],6353
same,cell count rep 3,HeLa cells; [4],6306
Nc1nonc1-c1nc2cnccc2n1C1CCCCC1 [SB-734117],%GFP+ rep 1,intracellular MRSA; [3],14.7%
same,%GFP+ rep 2,intracellular MRSA; [3],14.0%
same,%GFP+ rep 3,intracellular MRSA; [3],13.2%
same,effect,intracellular MRSA; Yes/No call from z-scoreMRSA+,No
same,hit,intracellular MRSA; [6],No
same,z-scoreMRSA+ mean,intracellular MRSA; [7],-0.0455
same,z-scoreMRSA+ rep 1,intracellular MRSA; [7],0.49
same,z-scoreMRSA+ rep 2,intracellular MRSA; [7],0.17
same,z-scoreMRSA+ rep 3,intracellular MRSA; [7],-0.79
same,cell count rep 1,HeLa cells; [4],2677
same,cell count rep 2,HeLa cells; [4],2902
same,cell count rep 3,HeLa cells; [4],5031
same,cell death,HeLa cells; Yes/No call from z-scoreHeLa,No
same,z-scoreHeLa mean,HeLa cells; [9],-1.28
same,z-scoreHeLa rep 1,HeLa cells; [9],-1.90
same,z-scoreHeLa rep 2,HeLa cells; [9],-1.03
same,z-scoreHeLa rep 3,HeLa cells; [9],-0.92

# Reference: PMC10999543, “Identification of kinase modulators as host-directed therapeutics against intracellular methicillin-resistant Staphylococcus aureus” (Frontiers in Cellular and Infection Microbiology, 2024)
